In PubChem BioAssay (NCI):
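Protocol summary: plate cells (96-well), add compound at 5 concentrations, incubate 48 h, interpolate endpoints linearly. The concentration for 50% growth inhibition is given as GI50. TGI marks complete inhibition of growth.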

Assays:
Assay in all cases: DTP human tumour cell line panel, 48 h
OVCAR-3 ovarian = test system: OVCAR-3 ovarian
OVCAR-5 ovarian = test system: OVCAR-5 ovarian
NCI-H522 lung = test system: NCI-H522 lung
M14 melanoma = test system: M14 melanoma
SK-OV-3 ovarian = test system: SK-OV-3 ovarian
OVCAR-4 ovarian = test system: OVCAR-4 ovarian
KM12 colon = test system: KM12 colon
EKVX NSCLC = test system: EKVX NSCLC
NCI/ADR-RES ovarian = test system: NCI/ADR-RES ovarian
HS 578T breast = test system: HS 578T breast

## Cc1ccc(N=C[N-]c2ccc(C)cc2)cc1.Cc1ccc(N=C[N-]c2ccc(C)cc2)cc1.O=C([O-])C(F)(F)F.O=C([O-])C(F)(F)F.[OH3+].[OH3+].[Rh+2].[Rh+2]
OVCAR-3 ovarian
  GI50: 62 µM
  TGI: > 100 µM
OVCAR-5 ovarian
  GI50: > 100 µM
  TGI: > 100 µM
NCI-H522 lung
  GI50: 23.4 µM
  TGI: 53.2 µM
M14 melanoma
  GI50: 26.2 µM
  TGI: 70.3 µM
SK-OV-3 ovarian
  GI50: > 100 µM
  TGI: > 100 µM
OVCAR-4 ovarian
  GI50: 44.6 µM
  TGI: > 100 µM
KM12 colon
  GI50: 35 µM
  TGI: > 100 µM
EKVX NSCLC
  GI50: 50.2 µM
  TGI: > 100 µM

## C#CC1=CC(=O)C(OC)=CC1=O
OVCAR-3 ovarian
  TGI: > 100 µM
OVCAR-5 ovarian
  TGI: > 100 µM
NCI/ADR-RES ovarian
  TGI: > 100 µM
HS 578T breast
  TGI: > 100 µM
NCI-H522 lung
  TGI: 4.2 µM
M14 melanoma
  TGI: 39.1 µM
SK-OV-3 ovarian
  TGI: > 100 µM
KM12 colon
  TGI: > 100 µM
EKVX NSCLC
  TGI: 68.1 µM

## CSc1cnc2ccccc2c1Sc1c[nH]c2ccccc2c1=O
OVCAR-3 ovarian
  TGI: 22 µM
OVCAR-5 ovarian
  TGI: 59.4 µM
NCI-H522 lung
  TGI: 11 µM
M14 melanoma
  TGI: 27.2 µM
SK-OV-3 ovarian
  TGI: 14.8 µM
OVCAR-4 ovarian
  TGI: 33 µM
KM12 colon
  TGI: 22.2 µM
EKVX NSCLC
  TGI: > 45.8 µM

## CCC[CH2][Sn]([CH2]CCC)([S]C#N)[S]C#N
OVCAR-3 ovarian
  GI50: 1.4 µM
  TGI: 2.7 µM
OVCAR-5 ovarian
  GI50: 1.56 µM
  TGI: 2.96 µM
NCI-H522 lung
  GI50: 0.0451 µM
  TGI: 0.224 µM
M14 melanoma
  GI50: 1.49 µM
  TGI: 3.48 µM
SK-OV-3 ovarian
  GI50: 1.77 µM
  TGI: 3.39 µM
OVCAR-4 ovarian
  GI50: 1.34 µM
  TGI: 2.74 µM
KM12 colon
  GI50: 1.45 µM
  TGI: 3.11 µM
EKVX NSCLC
  GI50: 1.36 µM
  TGI: 2.99 µM

## CCC(C)CC(C)CC(C)/C=C(\C)C1=C(C)CC(C)(O)O1 (stereo unspecified)
NCI-H522 lung
  TGI: > 100 µM
M14 melanoma
  TGI: > 100 µM
SK-OV-3 ovarian
  TGI: > 100 µM
EKVX NSCLC
  TGI: > 100 µM

## N#Cc1ccccc1NC(=O)C(=O)C1NC(=S)NC1=O (stereo unspecified)
OVCAR-3 ovarian
  TGI: > 100 µM
OVCAR-5 ovarian
  TGI: > 100 µM
M14 melanoma
  TGI: > 100 µM
OVCAR-4 ovarian
  TGI: > 100 µM
KM12 colon
  TGI: > 100 µM
EKVX NSCLC
  TGI: > 100 µM

## COc1ccc2oc3c(OC)c(OC)c(OC)cc3c(=O)c2c1
OVCAR-5 ovarian
  TGI: > 100 µM
NCI-H522 lung
  TGI: > 100 µM
M14 melanoma
  TGI: > 100 µM
SK-OV-3 ovarian
  TGI: > 100 µM
OVCAR-4 ovarian
  TGI: > 100 µM
EKVX NSCLC
  TGI: > 100 µM

## c1ccc(OCCC[P+](c2ccccc2)(c2ccccc2)c2ccccc2)cc1
OVCAR-3 ovarian
  GI50: 1.12 µM
  TGI: 19.4 µM
OVCAR-5 ovarian
  GI50: 4.09 µM
  TGI: > 100 µM
NCI/ADR-RES ovarian
  GI50: > 100 µM
  TGI: > 100 µM
HS 578T breast
  GI50: 2.69 µM
  TGI: 28.4 µM
NCI-H522 lung
  GI50: 0.574 µM
  TGI: 4.24 µM
M14 melanoma
  GI50: 2.53 µM
  TGI: 18.1 µM
SK-OV-3 ovarian
  GI50: 4.11 µM
  TGI: 32.4 µM
OVCAR-4 ovarian
  GI50: 0.486 µM
  TGI: 17.7 µM
KM12 colon
  GI50: 0.55 µM
  TGI: 10.9 µM

## Cc1ccc(NC(=O)C(=O)CC(=O)c2c(C)n([O-])c3ccccc3[n+]2=O)cc1C
OVCAR-3 ovarian
  TGI: > 100 µM
OVCAR-5 ovarian
  TGI: > 100 µM
NCI-H522 lung
  TGI: > 100 µM
M14 melanoma
  TGI: > 100 µM
SK-OV-3 ovarian
  TGI: > 100 µM
OVCAR-4 ovarian
  TGI: > 100 µM
KM12 colon
  TGI: > 100 µM
EKVX NSCLC
  TGI: > 100 µM

## Cn1cc(C2=C(c3c[nH]c4ccccc34)C(=O)NC2=O)c2ccccc21
OVCAR-3 ovarian
  GI50: 0.94 µM
  TGI: > 11.9 µM
OVCAR-5 ovarian
  GI50: > 25 µM
  TGI: > 25 µM
NCI/ADR-RES ovarian
  GI50: 3.33 µM
  TGI: > 25 µM
HS 578T breast
  GI50: 0.151 µM
  TGI: > 25 µM
NCI-H522 lung
  GI50: 2.11 µM
  TGI: > 25 µM
M14 melanoma
  GI50: 1.24 µM
  TGI: > 25 µM
SK-OV-3 ovarian
  GI50: 1.08 µM
  TGI: > 25 µM
OVCAR-4 ovarian
  GI50: > 5.06 µM
  TGI: > 25 µM
KM12 colon
  GI50: 0.586 µM
  TGI: > 25 µM

## COc1ccc(/C=C/c2c(C(=O)/C=C/c3ccc(C(F)(F)F)cc3)c(C)nc3ccccc23)cc1
OVCAR-3 ovarian
  GI50: 1.64 µM
  TGI: 3.48 µM
OVCAR-5 ovarian
  GI50: 2.13 µM
  TGI: 5.53 µM
NCI/ADR-RES ovarian
  GI50: 2.36 µM
  TGI: 7.46 µM
HS 578T breast
  GI50: 2.87 µM
  TGI: 8.29 µM
NCI-H522 lung
  GI50: 1.67 µM
  TGI: 5.69 µM
SK-OV-3 ovarian
  GI50: 2.24 µM
  TGI: 5.82 µM
OVCAR-4 ovarian
  GI50: 1.81 µM
  TGI: 3.67 µM
KM12 colon
  GI50: 2.12 µM
  TGI: 5.09 µM
EKVX NSCLC
  GI50: 1.72 µM
  TGI: 4.49 µM

## C1CCCCc2nc3c(nc2CCC1)c1nc2c(nc1c1nc4c(nc31)CCCCCCCC4)CCCCCCCC2
OVCAR-5 ovarian
  TGI: > 100 µM
M14 melanoma
  TGI: > 100 µM
SK-OV-3 ovarian
  TGI: > 100 µM
KM12 colon
  TGI: > 100 µM

## COc1ccc(C2=Nc3ccccc3SC(C)C2)cc1OC (stereo unspecified)
OVCAR-3 ovarian
  TGI: 30.8 µM
OVCAR-5 ovarian
  TGI: 52.6 µM
NCI-H522 lung
  TGI: 32.1 µM
M14 melanoma
  TGI: 33 µM
SK-OV-3 ovarian
  TGI: 39.5 µM
OVCAR-4 ovarian
  TGI: 57.4 µM
KM12 colon
  TGI: 36.3 µM
EKVX NSCLC
  TGI: 56.5 µM

## COc1cc2c(c(OC)c1OC)-c1ccc(SC)c(=O)cc1[C@@H](NCc1ccc([N+](=O)[O-])cc1)CC2
OVCAR-3 ovarian
  TGI: 0.00965 µM
OVCAR-5 ovarian
  GI50: > 100 µM
  TGI: > 100 µM
NCI-H522 lung
  TGI: 0.0119 µM
KM12 colon
  TGI: 0.0341 µM
EKVX NSCLC
  TGI: > 100 µM

## O=C(Nc1ccccc1I(=O)=O)C1CCCCC1
OVCAR-3 ovarian
  GI50: > 100 µM
  TGI: > 100 µM
OVCAR-5 ovarian
  GI50: > 100 µM
  TGI: > 100 µM
NCI/ADR-RES ovarian
  GI50: > 100 µM
  TGI: > 100 µM
HS 578T breast
  GI50: > 100 µM
  TGI: > 100 µM
NCI-H522 lung
  GI50: > 100 µM
  TGI: > 100 µM
SK-OV-3 ovarian
  GI50: > 100 µM
  TGI: > 100 µM
OVCAR-4 ovarian
  GI50: > 100 µM
  TGI: > 100 µM
KM12 colon
  GI50: > 100 µM
  TGI: > 100 µM
EKVX NSCLC
  GI50: > 100 µM
  TGI: > 100 µM

## CCCCCCCC1(c2ccc(N)cc2)CCC(=O)NC1=O (stereo unspecified)
OVCAR-3 ovarian
  TGI: 81.1 µM
OVCAR-5 ovarian
  TGI: > 100 µM
NCI-H522 lung
  TGI: 78.6 µM
M14 melanoma
  TGI: > 100 µM
SK-OV-3 ovarian
  TGI: > 100 µM
OVCAR-4 ovarian
  TGI: > 100 µM
KM12 colon
  TGI: > 100 µM
EKVX NSCLC
  TGI: > 100 µM

## COc1ccc(C)cc(=O)c1O
OVCAR-3 ovarian
  TGI: > 100 µM
OVCAR-5 ovarian
  TGI: > 100 µM
NCI-H522 lung
  TGI: 84.8 µM
M14 melanoma
  TGI: > 100 µM
SK-OV-3 ovarian
  TGI: > 100 µM
OVCAR-4 ovarian
  TGI: > 100 µM
KM12 colon
  TGI: > 100 µM
EKVX NSCLC
  TGI: > 100 µM

## CCN(CC)CC1CCCCN1CC(=O)N1CC(C)C(=O)Nc2ccccc21 (stereo unspecified)
OVCAR-3 ovarian
  TGI: > 100 µM
OVCAR-5 ovarian
  TGI: > 100 µM
M14 melanoma
  TGI: > 100 µM
SK-OV-3 ovarian
  TGI: > 100 µM
OVCAR-4 ovarian
  TGI: > 100 µM

## COc1cc(/C=C/c2ccc(O)c(OC)c2)cc(OC)c1
OVCAR-5 ovarian
  TGI: > 100 µM
NCI/ADR-RES ovarian
  TGI: > 100 µM
HS 578T breast
  TGI: 59.1 µM
M14 melanoma
  TGI: 70.8 µM
SK-OV-3 ovarian
  TGI: 76.9 µM
OVCAR-4 ovarian
  TGI: > 100 µM
KM12 colon
  TGI: 96.5 µM
EKVX NSCLC
  TGI: > 100 µM

## CC1=C(SC#N)S(=O)(=O)N(c2ccccc2)C(C)=C1SC#N
OVCAR-5 ovarian
  TGI: > 100 µM
NCI-H522 lung
  TGI: > 100 µM
SK-OV-3 ovarian
  TGI: 89.9 µM
OVCAR-4 ovarian
  TGI: > 100 µM
KM12 colon
  TGI: > 100 µM

## CCOC(=O)C(Cc1ccc(N(CCCl)CCCl)cc1)NC(=O)C(Cc1ccccc1)NC=O (stereo unspecified)
OVCAR-3 ovarian
  TGI: 0.29 µM
OVCAR-5 ovarian
  TGI: 0.548 µM
NCI/ADR-RES ovarian
  TGI: 0.656 µM
NCI-H522 lung
  TGI: 0.167 µM
M14 melanoma
  TGI: 0.31 µM
SK-OV-3 ovarian
  TGI: 0.634 µM
OVCAR-4 ovarian
  TGI: 0.123 µM
KM12 colon
  TGI: 0.638 µM
EKVX NSCLC
  TGI: 0.538 µM
